Reference: PubChem BioAssay AID180 (DTP/NCI, 2004)
Several values for one entry are separate records, joined by “and”; a condition that tells them apart may be missing. Identical values can stand only once.

System: BDF1 mice, Adenocarcinoma 755 s.c., tumor weight T/C
Experiment: NCI In Vivo Anticancer Drug Screen. Data for tumor model Adenocarcinoma 755 (subcutaneous) in B6D2F1 (BDF1) mice
Settings: endpoint: mean tumor weight, schedule: Q01DX011 (ip), higher = larger tumour
Procedure, shortened: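 Transplantable tumor implanted; mice dosed with compound or vehicle; survival or tumor size recorded; ratio of treated to vehicle control reported.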

[1] = dose: 30.0 mg/kg/injection, vehicle: carboxymethylcellulose (CMC)
[2] = dose: 60.0 mg/kg/injection, vehicle: carboxymethylcellulose (CMC)
[3] = dose: 120.0 mg/kg/injection, vehicle: carboxymethylcellulose (CMC)
[4] = dose: 25.0 mg/kg/injection, vehicle: methylcellulose (MC)
[5] = dose: 75.0 mg/kg/injection, vehicle: methylcellulose (MC)
[6] = dose: 240.0 mg/kg/injection, vehicle: carboxymethylcellulose (CMC)
[7] = dose: 250.0 mg/kg/injection, vehicle: methylcellulose (MC)
[8] = dose: 25.0 mg/kg/injection, vehicle: carboxymethylcellulose (CMC)
[9] = dose: 75.0 mg/kg/injection, vehicle: carboxymethylcellulose (CMC)
[10] = dose: 225.0 mg/kg/injection, vehicle: carboxymethylcellulose (CMC)

O=C1N(Br)C(=O)C(c2ccc(Cl)cc2)(c2ccc(Cl)cc2)N1Br
T/C (dose: 1.7 mg/kg/injection, vehicle: carboxymethylcellulose (CMC)): 42 % of control | T/C (dose: 3.5 mg/kg/injection, vehicle: carboxymethylcellulose (CMC)): 76 % of control | T/C (dose: 7.0 mg/kg/injection, vehicle: carboxymethylcellulose (CMC)): 91 % of control | T/C (dose: 14.0 mg/kg/injection, vehicle: carboxymethylcellulose (CMC)): 35 % of control and 39 % of control and 43 % of control | T/C (dose: 28.0 mg/kg/injection, vehicle: carboxymethylcellulose (CMC)): 35 % of control and 49 % of control | T/C [1]: 22 % of control and 38 % of control | T/C (dose: 56.0 mg/kg/injection, vehicle: carboxymethylcellulose (CMC)): 20 % of control | T/C [2]: 29 % of control and 35 % of control | T/C (dose: 112.0 mg/kg/injection, vehicle: carboxymethylcellulose (CMC)): 38 % of control | T/C [3]: 14 % of control

Cn1cnc2nc[nH]c2c1=S
T/C [4]: 64 % of control | T/C [5]: 75 % of control

CCOC1=C(N2CC2)C(=O)C(OCC)=C(N2CC2)C1=O
T/C (dose: 0.08 mg/kg/injection, vehicle: carboxymethylcellulose (CMC)): 36 % of control | T/C (dose: 0.12 mg/kg/injection, vehicle: carboxymethylcellulose (CMC)): 94 % of control | T/C (dose: 0.16 mg/kg/injection, vehicle: carboxymethylcellulose (CMC)): 46 % of control | T/C (dose: 0.25 mg/kg/injection, vehicle: carboxymethylcellulose (CMC)): 55 % of control | T/C (dose: 0.32 mg/kg/injection, vehicle: carboxymethylcellulose (CMC)): 48 % of control | T/C (dose: 0.5 mg/kg/injection, vehicle: carboxymethylcellulose (CMC)): 71 % of control | T/C (dose: 0.63 mg/kg/injection, vehicle: carboxymethylcellulose (CMC)): 35 % of control | T/C (dose: 1.0 mg/kg/injection, vehicle: carboxymethylcellulose (CMC)): 44 % of control | T/C (dose: 2.5 mg/kg/injection, vehicle: methylcellulose (MC)): 21 % of control | T/C (dose: 10.0 micrograms/kg/injection, vehicle: carboxymethylcellulose (CMC)): 111 % of control | T/C (dose: 40.0 micrograms/kg/injection, vehicle: carboxymethylcellulose (CMC)): 98 % of control | T/C (dose: 80.0 micrograms/kg/injection, vehicle: carboxymethylcellulose (CMC)): 115 % of control

CCOC=Nc1c(N)ncnc1F
T/C [1]: 92 % of control | T/C [2]: 89 % of control | T/C [3]: 57 % of control | T/C [6]: 55 % of control

CSc1ncc(Br)c(NCc2ccccc2Cl)n1
T/C [4]: 65 % of control | T/C (dose: 31.0 mg/kg/injection, vehicle: methylcellulose (MC)): 106 % of control | T/C (dose: 62.0 mg/kg/injection, vehicle: methylcellulose (MC)): 103 % of control | T/C (dose: 125.0 mg/kg/injection, vehicle: methylcellulose (MC)): 85 % of control | T/C [7]: 80 % of control

Cn1c(N)c(C(=O)CCl)c(=O)n(C)c1=O
T/C [1]: 66 % of control

Nc1nc(S(N)(=O)=O)nc2nc[nH]c12
T/C [8]: 57 % of control | T/C [9]: 82 % of control | T/C [10]: 72 % of control

CC1CN1P1(N2CC2C)=NP(N2CC2C)(N2CC2C)=NP(N2CC2C)(N2CC2C)=N1 (stereo not drawn)
T/C (dose: 3.0 mg/kg/injection, vehicle: saline): 81 % of control | T/C (dose: 5.0 mg/kg/injection, vehicle: saline): 53 % of control | T/C (dose: 9.0 mg/kg/injection, vehicle: saline): 52 % of control | T/C (dose: 18.0 mg/kg/injection, vehicle: saline): 20 % of control and 35 % of control | T/C (dose: 36.0 mg/kg/injection, vehicle: saline): 9 % of control | T/C (dose: 75.0 mg/kg/injection, vehicle: saline): 24 % of control

CCC1OCCN1C(C)C (stereo not drawn)
T/C (dose: 12.0 mg/kg/injection, vehicle: other): 118 % of control | T/C [8]: 57 % of control | T/C (dose: 25.0 mg/kg/injection, vehicle: other): 109 % of control | T/C (dose: 25.0 mg/kg/injection, vehicle: saline): 84 % of control | T/C (dose: 50.0 mg/kg/injection, vehicle: carboxymethylcellulose (CMC)): 33 % of control | T/C (dose: 50.0 mg/kg/injection, vehicle: other): 223 % of control | T/C (dose: 50.0 mg/kg/injection, vehicle: saline): 29 % of control

CC(=O)OCC1OC(n2c(Br)nc3c(N)ncnc32)C(OC(C)=O)C1OC(C)=O (stereo not drawn)
T/C [1]: 88 % of control | T/C [2]: 88 % of control | T/C [3]: 104 % of control | T/C [6]: 113 % of control

O=C(CCl)N1c2ccccc2Oc2cc3ccccc3cc21
T/C (dose: 4.4 mg/kg/injection, vehicle: methylcellulose (MC)): 78 % of control | T/C (dose: 6.6 mg/kg/injection, vehicle: methylcellulose (MC)): 62 % of control | T/C (dose: 10.0 mg/kg/injection, vehicle: methylcellulose (MC)): 54 % of control | T/C (dose: 14.0 mg/kg/injection, vehicle: methylcellulose (MC)): 45 % of control | T/C (dose: 14.0 mg/kg/injection, vehicle: other): 120 % of control | T/C (dose: 28.0 mg/kg/injection, vehicle: methylcellulose (MC)): 33 % of control | T/C (dose: 28.0 mg/kg/injection, vehicle: other): 87 % of control | T/C (dose: 56.0 mg/kg/injection, vehicle: other): 61 % of control | T/C (dose: 112.0 mg/kg/injection, vehicle: other): 94 % of control

Cc1ccccc1N(C=O)c1ccccc1C
T/C [7]: 108 % of control | T/C (dose: 500.0 mg/kg/injection, vehicle: methylcellulose (MC)): 120 % of control | T/C (dose: 1000.0 mg/kg/injection, vehicle: methylcellulose (MC)): 110 % of control

O=c1[nH]c2[nH]c(S(=O)(=O)O)nc(=S)c2[nH]1
T/C [5]: 43 % of control | T/C (dose: 150.0 mg/kg/injection, vehicle: methylcellulose (MC)): 55 % of control | T/C (dose: 300.0 mg/kg/injection, vehicle: methylcellulose (MC)): 67 % of control | T/C (dose: 600.0 mg/kg/injection, vehicle: methylcellulose (MC)): 28 % of control

CCCCCCOP(=O)(N1CC1C)N1CC1C (stereo not drawn)
T/C (dose: 12.5 mg/kg/injection, vehicle: saline): 100 % of control | T/C (dose: 100.0 mg/kg/injection, vehicle: saline): 13 % of control and 19 % of control and 26 % of control

O=C(O)CC(Nc1ncnc2nc[nH]c12)C(=O)O (stereo not drawn)
T/C (dose: 12.0 mg/kg/injection, vehicle: methylcellulose (MC)): 105 % of control | T/C [4]: 98 % of control | T/C (dose: 50.0 mg/kg/injection, vehicle: methylcellulose (MC)): 103 % of control | T/C (dose: 100.0 mg/kg/injection, vehicle: methylcellulose (MC)): 45 % of control

Nc1nc2c(ncn2C2CCCC2)c(=O)[nH]1
T/C [8]: 88 % of control | T/C [9]: 63 % of control | T/C [10]: 59 % of control

Nc1ncnc(F)c1N
T/C (dose: 15.5 mg/kg/injection, vehicle: carboxymethylcellulose (CMC)): 106 % of control | T/C [1]: 96 % of control | T/C [2]: 123 % of control | T/C [3]: 89 % of control
